In publication PMC12064818, “A general assay platform to study protein pharmacology using ligand-dependent structural dynamics” (Nature Communications, 2025):

Target: T1, Nano luciferase (NLuc) (Oplophorus gracilirostris, UniProt Q9GV45, A31E/A60N/A81I/F95D/I117V/K70R/L54V/L99Q/M102K/N193R/P142E/Q151K/Q38R/Q45L/V71I/Y165I)
T1 construct: His tag (inferred from IMAC purification); made in house; host or cells: E. coli
Experiment: Thermal shift profiles (Thermofluor assay), NLuc
Type: binding
Parameters: unit of the concentration uncertain
Conditions: compound 100 (unit uncertain); for Thermofluor NLuc, ATP: ATP (2 mM)
Procedure: Thermal stabilization of proteins in the presence of the ligands were determined using Thermofluor technique. MicroAmp optical 384-well plates (Applied Biosystems by Life Technologies), ViiA 7 real-time PCR instrument (Applied Biosystems by Life Technologies) and SYPRO Orange (Life Technologies) were used to test the samples. […]. Proteins were added to the 384-well plate first followed by the compounds. Samples were incubated for 10 mins at room temperature and protected from light. SYPRO Orange dye was diluted to 50x from 5000x stock in a PBS buffer, and 4 µL dye was added to the each well using a multi-channel pipette. The plate was sealed with a MicroAmp optical adhesive film, centrifuged at 1500 RPM for 2 min, and then loaded onto the ViiA 7 real–time PCR instrument for fluorescence intensity measurements upon heating the sample from 25 to 95 °C at 1 °C/min increments. Data was exported to excel, fluorescence intensity data and its first derivative were normalized and plotted using GraphPad Prism to determine Tm. See Supplementary Table 3 for additional details.
Supplementary Figure 6. Comparison of SDR and Thermofluor analysis of […]
Temperature °C Temperature °C […]
Supplementary Table 3. Protocol for Thermofluor assay
Supplementary Table 3: Protocol for Therm ofluor assay
Sequence Param eter Value Description […]
3 Incubation 10 m ins Room tem perature, protected from light
4 Dye 10X Sypro Orange dye in PBS added to the sam ple
5 Centrifugation 2 m in Centrifuge for 2 m in at 1500 RPM at RT
6 Read ViiA7 Read the therm al unfolding of the protein with ViiA7 real-tim e PCR system
4 Prepare 50X dye in PBS: 1 μL Sypro Orange 5000X (Life Technologies), 99 μL ddH2O. Add 4 μL to each well Read the m elting tem perature from 25 to 95 °C using ViiA 7 real tim e PCR instrum ent by following the below instructions Perform therm al denaturation in 384-well assay plate
(i) Place the assay plate into the Applied Biosystem s ViiA7 real-tim e PCR instrum ent and open the ViiA7 RUO software.
Under Experim ental Properties, select the following param eters: Set up: […] (20 μl), Experim ent type: MELT CURVE, Reagents used to detect target sequence: OTHER, Ram p Speed: […]
(ii) Select the Define tab on the left, then select the following param eters: Target nam e: TARGET 1, Reporter: ROX, 6 Quencher: NONE, Passive Reference: NONE
(iii) Select the Assign tab on the left, then perform the following actions: Highlight all 384 wells in the assay plate and check the box next to ‘Target 1’ on the top left of the plate layout. Note: check the ‘Sam ple’ box on the lower left.
(iv) Select the Run Method tab on the left, then m ake the following changes to the default Melt Curve profile: Delete Step 2 of the default cycle, change run m ethod to “Step and Hold” with a 1:00 tim e, set the following tem peratures: an initial 2:00 hold at 25 °C (4 °C), ram ping up in increm ents of 1 ° C to a final tem perature of 95 °C (with a 2:00 hold), click on all three cam eras to activate fluorescence detection throughout the experim ent, and Select total volum e per well of 20 μl
(v) Click on the RUN tab to the left to initiate therm al denaturation.

T1 sequence (Q9GV45 other isoform, or with tags, fused parts or gaps with the stated changes): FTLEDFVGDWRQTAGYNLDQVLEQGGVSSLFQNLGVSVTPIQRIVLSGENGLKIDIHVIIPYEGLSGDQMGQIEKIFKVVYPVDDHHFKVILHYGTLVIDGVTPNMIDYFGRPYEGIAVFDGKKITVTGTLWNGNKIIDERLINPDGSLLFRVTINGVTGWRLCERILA

## COc1ccc(NC(=O)C2CCN(C(=O)c3ncn4c3COC(c3ccccc3)C4)CC2)cc1Cl (stereo not drawn) [NCGC 00449919]
20.000 °C
  Thermofluor NLuc, No ATP: 1
  Thermofluor NLuc, ATP: 0.908
20.993 °C
  Thermofluor NLuc, No ATP: 0.737
  Thermofluor NLuc, ATP: 0.958
21.987 °C
  Thermofluor NLuc, No ATP: 0.665
  Thermofluor NLuc, ATP: 0.992
22.980 °C
  Thermofluor NLuc, No ATP: 0.636
  Thermofluor NLuc, ATP: 1
23.974 °C
  Thermofluor NLuc, No ATP: 0.59
  Thermofluor NLuc, ATP: 0.981
24.967 °C
  Thermofluor NLuc, No ATP: 0.577
  Thermofluor NLuc, ATP: 0.945
25.960 °C
  Thermofluor NLuc, No ATP: 0.551
  Thermofluor NLuc, ATP: 0.901
26.954 °C
  Thermofluor NLuc, No ATP: 0.532
  Thermofluor NLuc, ATP: 0.858
27.947 °C
  Thermofluor NLuc, No ATP: 0.492
  Thermofluor NLuc, ATP: 0.821
28.940 °C
  Thermofluor NLuc, No ATP: 0.484
  Thermofluor NLuc, ATP: 0.79
29.934 °C
  Thermofluor NLuc, No ATP: 0.475
  Thermofluor NLuc, ATP: 0.766
30.927 °C
  Thermofluor NLuc, No ATP: 0.424
  Thermofluor NLuc, ATP: 0.748
31.921 °C
  Thermofluor NLuc, No ATP: 0.447
  Thermofluor NLuc, ATP: 0.735
32.914 °C
  Thermofluor NLuc, No ATP: 0.416
  Thermofluor NLuc, ATP: 0.726
33.907 °C
  Thermofluor NLuc, No ATP: 0.402
  Thermofluor NLuc, ATP: 0.72
34.901 °C
  Thermofluor NLuc, No ATP: 0.393
  Thermofluor NLuc, ATP: 0.716
35.894 °C
  Thermofluor NLuc, No ATP: 0.367
  Thermofluor NLuc, ATP: 0.71
36.887 °C
  Thermofluor NLuc, No ATP: 0.355
  Thermofluor NLuc, ATP: 0.703
37.881 °C
  Thermofluor NLuc, No ATP: 0.332
  Thermofluor NLuc, ATP: 0.693
38.874 °C
  Thermofluor NLuc, No ATP: 0.332
  Thermofluor NLuc, ATP: 0.683
39.868 °C
  Thermofluor NLuc, No ATP: 0.308
  Thermofluor NLuc, ATP: 0.672
40.861 °C
  Thermofluor NLuc, No ATP: 0.311
  Thermofluor NLuc, ATP: 0.661
41.854 °C
  Thermofluor NLuc, No ATP: 0.286
  Thermofluor NLuc, ATP: 0.65
42.848 °C
  Thermofluor NLuc, No ATP: 0.281
  Thermofluor NLuc, ATP: 0.638
43.841 °C
  Thermofluor NLuc, No ATP: 0.279
  Thermofluor NLuc, ATP: 0.624
44.835 °C
  Thermofluor NLuc, No ATP: 0.247
  Thermofluor NLuc, ATP: 0.61
45.828 °C
  Thermofluor NLuc, No ATP: 0.259
  Thermofluor NLuc, ATP: 0.594
46.821 °C
  Thermofluor NLuc, No ATP: 0.247
  Thermofluor NLuc, ATP: 0.579
47.815 °C
  Thermofluor NLuc, No ATP: 0.245
  Thermofluor NLuc, ATP: 0.563
48.808 °C
  Thermofluor NLuc, No ATP: 0.238
  Thermofluor NLuc, ATP: 0.547
50.795 °C
  Thermofluor NLuc, No ATP: 0.24
  Thermofluor NLuc, ATP: 0.504
51.788 °C
  Thermofluor NLuc, No ATP: 0.229
  Thermofluor NLuc, ATP: 0.47
52.782 °C
  Thermofluor NLuc, No ATP: 0.227
  Thermofluor NLuc, ATP: 0.422
53.775 °C
  Thermofluor NLuc, No ATP: 0.227
  Thermofluor NLuc, ATP: 0.36
54.768 °C
  Thermofluor NLuc, No ATP: 0.248
  Thermofluor NLuc, ATP: 0.285
55.762 °C
  Thermofluor NLuc, No ATP: 0.239
  Thermofluor NLuc, ATP: 0.202
56.755 °C
  Thermofluor NLuc, No ATP: 0.264
  Thermofluor NLuc, ATP: 0.122
57.748 °C
  Thermofluor NLuc, No ATP: 0.317
  Thermofluor NLuc, ATP: 0.055
58.742 °C
  Thermofluor NLuc, No ATP: 0.38
  Thermofluor NLuc, ATP: 0.012
59.735 °C
  Thermofluor NLuc, No ATP: 0.412
  Thermofluor NLuc, ATP: 0
60.729 °C
  Thermofluor NLuc, No ATP: 0.472
  Thermofluor NLuc, ATP: 0.021
61.722 °C
  Thermofluor NLuc, No ATP: 0.524
  Thermofluor NLuc, ATP: 0.072
62.715 °C
  Thermofluor NLuc, No ATP: 0.52
  Thermofluor NLuc, ATP: 0.145
63.709 °C
  Thermofluor NLuc, No ATP: 0.568
  Thermofluor NLuc, ATP: 0.233
65.695 °C
  Thermofluor NLuc, No ATP: 0.566
  Thermofluor NLuc, ATP: 0.416
66.689 °C
  Thermofluor NLuc, No ATP: 0.551
  Thermofluor NLuc, ATP: 0.499
68.676 °C
  Thermofluor NLuc, No ATP: 0.541
  Thermofluor NLuc, ATP: 0.632
69.669 °C
  Thermofluor NLuc, No ATP: 0.515
  Thermofluor NLuc, ATP: 0.682
70.662 °C
  Thermofluor NLuc, No ATP: 0.497
  Thermofluor NLuc, ATP: 0.723
71.656 °C
  Thermofluor NLuc, No ATP: 0.488
  Thermofluor NLuc, ATP: 0.755
72.649 °C
  Thermofluor NLuc, No ATP: 0.477
  Thermofluor NLuc, ATP: 0.781
73.643 °C
  Thermofluor NLuc, No ATP: 0.428
  Thermofluor NLuc, ATP: 0.8
74.636 °C
  Thermofluor NLuc, No ATP: 0.405
  Thermofluor NLuc, ATP: 0.812
75.629 °C
  Thermofluor NLuc, No ATP: 0.392
  Thermofluor NLuc, ATP: 0.819
